Measurements as given in US6034066A, “Cysteine protease inhibitors for use in treatment of IGE mediated allergic diseases” (Peptide Therapeutics Limited, priority 1995, dated 2000).

The compounds below were run against T1, Der p I (Dermatophagoides pteronyssinus, UniProt P08176) (assay: Inhibition (inactivation) kinetics of Der p I, fluorogenic substrate assay). Conditions: second order inactivation rate constant; 50 mM potassium phosphate pH 8.25, 1 mM EDTA, 1 mM DTT, 25° C.; purified Der p I.
T1 construct: tissue SmithKline-Beecham (crude mite extract); host or cells: house dust mite extract, purified on immobilised anti-Der p I antibody 4C1
T1 sequence (P08176 99-320): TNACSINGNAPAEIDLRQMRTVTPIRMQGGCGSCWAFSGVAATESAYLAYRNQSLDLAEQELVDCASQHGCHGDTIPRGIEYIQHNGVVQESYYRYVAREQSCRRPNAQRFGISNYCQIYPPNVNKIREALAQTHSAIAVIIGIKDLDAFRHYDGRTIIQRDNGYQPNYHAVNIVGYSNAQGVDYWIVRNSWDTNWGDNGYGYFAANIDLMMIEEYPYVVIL
Type: biochemical
Method: All Der-p I enzyme assays were routinely carried out in 50 mM potassium phosphate; pH 8.25 containing 1 mM ethylenediaminetetraaceticacid (EDTA) and 1 mM dithiothreitol (DTT). Product formation was monitored with respect to time by measuring the increase in fluorescence emission at 420 nm and exciting at 320 nm. All assays were carried out at 25° C. Stock solutions of the various substrates and/or inhibitors were made up in 100% dimethylsulphoxide (DMSO).
The reaction of enzyme and inhibitor is comprised of two steps. The first is binding of enzyme and inhibitor to produce the enzyme inhibitor complex (E.I). This step is assumed to be rapid and reversible, relative to the other steps, and no chemical reaction occurs. In this case k1 is the second order rate constant for the formation of the E.I complex and k-1 is the first order rate constant for the breakdown of the E.I. The second step in the process, occurring at a rate k2, is the formation of the enzyme-inhibitor covalent complex (EI) resulting in irreversible inactivation of the enzyme.
The practice of inactivation kinetics of enzymes have been described by two standard accepted methods (Schemes 1 and 2). The first (Scheme 1) is the dilution method described by Kitz, C. G. and Wilson, I. B., (1962), J. Biol. Chem., 237, 3245-3249. In this case enzyme and inhibitor are pre-incubated for a set period of time prior to quenching of this reaction by the addition of an excess of substrate. The second method (Scheme 2), is monitoring enzyme inactivation in the presence of substrate and irreversible inhibitors. This method has been described previously (Tian, W. -X. & Tsou, C. -L, (1982), Biochemistry, 21, 1028-1032; Morrison, J. F. & Walsh, C. T., (1988), Adv. Enzymol. Relat. Areas Mol. Biol., 61, 201-301) and the equations describing the kinetics are shown below (Eq. 1, 2 and 3). In both cases the inhibitor concentration employed is at least 10 times greater than the enzyme concentration in order to maintain pseudo-first order conditions.
kapp =k2 [I]/1+[S]/KM [I]+K1) Eq. 1
[Product]=vs t+(v0 -v5)[1-exp(-kapp t)]/kapp +dEq.
second order rate constant=(kapp /[I])(1+[S]/KM) Eq. 3
The apparent inactivation rate constant (kapp) was calculated using Eq. 2; where vo is the initial velocity of the reaction, vs is asymptotic steady-state velocity of the reaction, d is the intercept at time zero. The second order rate was calculated using Eq. 3.
Assays were routinely carried out in 50 mM potassium phosphate; pH 8.25 containing 1 mM ethylenediaminetetraaceticacid (EDTA) and 1 mM dithiothreitol (DTT). The fluorogenic substrate was 2-aminobenzoylvalylalanylnorleucylseryl-(3-nitro)tyrosinyl aspartylamide. Product formation was monitored with respect to time by measuring the increase in fluorescence emission at 420 nm and exciting at 320 nm. Assays were carried out at 25° C. Stock solutions of the various inhibitors were made up in 100% dimethylsulphoxide.
Inactivation kinetics for various inhibitors were carried out using the techniques already described. In the dilution method, generally 100 nM Der p I was mixed and incubated with 0.5-10 uM of the inhibitor and aliquots were taken out at given time points (sampling time) and the residual enzyme activity determined by a ten-fold dilution into assay buffer containing saturating amounts of substrate. The residual activity was related to the sampling time and the curve fitted by computational non-linear least square regression analysis. In cases where the second order rate constants were greater than 10^5 M^-1 s^-1, second order conditions were employed (i.e. equimolar amounts of enzyme and inhibitor). Generally stoichiometric amounts of enzyme and inhibitor were incubated for given time intervals (sampling time) and the reaction stopped by a ten-fold dilution of this mixture by saturating amounts of substrate in assay buffer. […]

| Compound | kobs /[I] |
| --- | --- |
| CCCC[C@H](NC(=O)[C@H](C)NC(=O)[C@@H](NC(=O)c1ccccc1)C(C)C)C(=O)COC(=O)c1c(C(F)(F)F)cccc1C(F)(F)F [Compound 3, N-Benzoyl-L-valyl-L-alanyl-L-norleucine 2,6-bis (trifluoromethyl)benzoyloxymethyl ketone] | > 10^7 M^- s^-1 |
| CCCC[C@H](NC(=O)[C@H](C)NC(=O)[C@@H](NC(=O)c1ccccc1)C(C)C)C(=O)COC(=O)c1c(C)cccc1C [Compound 4, N-Benzoyl-L-valyl-L-alanyl-L-norleucine 2,6-dimethyl benzoyloxy methyl ketone] | 1.6 × 10^7 M^- s^-1 |
| CCCC[C@H](NC(=O)[C@H](C)NC(=O)[C@@H](NC(=O)c1ccccc1)C(C)C)C(=O)COC(=O)c1c(Cl)cccc1Cl [Compound 6, N-Benzoyl-L-valyl-L-alanyl-L-norleucine 2,6-dichlorobenzoyloxymethyl ketone] | 6.8 × 10^7 M^- s^-1 |
| CCCC[C@H](NC(=O)[C@H](C)NC(=O)[C@@H](NC(=O)c1ccccc1)C(C)C)C(=O)COC(=O)c1ccccc1 [Compound 7, N-Benzoyl-L-valyl-L-alanyl-L-norleucine benzoyloxymethyl ketone] | 3.7 × 10^5 M^- s^-1 |
| CCCC[C@H](NC(=O)[C@H](C)NC(=O)[C@@H](NC(=O)c1ccccc1)C(C)C)C(=O)COC(=O)c1c(F)c(F)c(F)c(F)c1F [Compound 8, N-Benzoyl-L-valyl-L-alanyl-L-norleucine 2,3,4,5,6-pentafluoro benzoyloxy methyl ketone] | > 10^7 M^- s^-1 |
| CCCC[C@H](NC(=O)[C@H](C)NC(=O)[C@@H](NC(=O)c1ccccc1)C(C)C)C(=O)COC(=O)[C@@H](COC(C)(C)C)NC(=O)OCc1ccccc1 [Compound 10, N-Benzoyl-L-valyl-L-alanyl-L-norleucine N-(-benzyloxycarbonyl)-D-serinyl-(O-tert-butyl)oxymethyl ketone] | 1.9 × 10^5 M^- s^-1 |
| CCCC[C@H](NC(=O)[C@H](C)NC(=O)[C@@H](NC(=O)c1ccccc1)C(C)C)C(=O)COC(=O)[C@@H](CO)NC(=O)OCc1ccccc1 [Compound 11, N-Benzoyl-L-valyl-L-alanyl-L-norleucine N(-benzyloxycarbonyl)-D-serinyloxy methyl ketone] | 1.2 × 10^6 M^- s^-1 |
| CCCC[C@H](NC(=O)[C@H](C)NC(=O)[C@@H](NC(=O)c1ccccc1)C(C)C)C(=O)COC(=O)c1c(Cl)cccc1Cl [Compound 13, N-Benzoyl-L-valyl-L-alanyl-L-norleucine 2,6-dichlorophenylacyloxy methyl ketone] | 6.6 × 10^5 M^- s^-1 |
| CCCC[C@H](NC(=O)[C@H](C)NC(=O)[C@@H](NC(=O)c1ccccc1)C(C)C)C(=O)NOC(=O)c1ccccc1 [Compound 15, N-(Benzoyl amino-L-valyl-L-alanyl-L-norleucyl)-O-benzoyl hydroxamate] | 1.5 × 10^5 M^- s^-1 |
| CCCC[C@H](NC(=O)[C@H](C)NC(=O)[C@@H](NC(=O)c1ccccc1)C(C)C)C(=O)NOC(=O)c1c(C)cccc1C [Compound 16, N-(N-benzoyl-L-valyl-L-alanyl-L-norleucyl)-O-2,6-dimethyl-benzoyl hydroxamate] | 1.6 × 10^4 M^- s^-1 |
| CCOC(=O)/C=C/[C@H](CC(C)C)NC(=O)[C@H](C)NC(=O)[C@@H](NC(=O)OC(C)(C)C)C(C)C [Compound 23] | 1.7 × 10^3 M^- s^-1 |
| CC(C)C[C@@H](/C=C/C(=O)OCC(F)(F)F)NC(=O)[C@H](C)NC(=O)[C@@H](NC(=O)OC(C)(C)C)C(C)C [Compound 25] | 3.1 × 10^3 M^- s^-1 |
| CCOC(=O)/C=C/[C@H](CC(C)C)NC(=O)[C@H](C)NC(=O)[C@@H](NC(=O)c1ccccc1)C(C)C [Compound 26] | 4.1 × 10^3 M^- s^-1 |
| CCOC(=O)/C=C/[C@H](CC(C)C)NC(=O)[C@H](C)NC(=O)[C@@H](NC(=O)c1ccccc1C(F)(F)F)C(C)C [Compound 27] | 6.3 × 10^3 M^- s^-1 |
| CCOC(=O)/C=C/[C@H](CC(C)C)NC(=O)[C@H](C)NC(=O)[C@@H](NC(=O)c1ccc2c(c1)OCO2)C(C)C [Compound 28] | 6.8 × 10^3 M^- s^-1 |
| CCOC(=O)/C=C/[C@H](CC(C)C)NC(=O)[C@H](C)NC(=O)[C@@H](NC(=O)Nc1ccccc1)C(C)C [Compound 29] | 4.6 × 10^3 M^- s^-1 |
| CCOC(=O)/C=C/[C@H](CC(C)C)NC(=O)[C@H](C)NC(=O)[C@@H](NC(=O)N(c1ccccc1)c1ccccc1)C(C)C [Compound 30] | 7.5 × 10^3 M^- s^-1 |
| CCOC(=O)/C=C/[C@H](CC(C)C)NC(=O)[C@H](C)NC(=O)[C@@H](NC(=O)C1c2ccccc2Oc2ccccc21)C(C)C [Compound 34] | 1.1 × 10^4 M^- s^-1 |
| CCOS(=O)(=O)/C=C/[C@H](CC(C)C)NC(=O)[C@H](C)NC(=O)[C@@H](NC(=O)OC(C)(C)C)C(C)C [Compound 40, Ethyl(S)-(E)-3-((tert-butoxycarbonylamino-L-valyl)-L-alanyl)amino-5-methylhexenylsulfonate] | 6.9 × 10^4 M^- s^-1 |
| N-Benzoyl-L-valyl-L-alanyl-L-norleucine 1,1-dimethylpropyloxymethyl ketone [Compound 9] | 2.3 × 10^4 M^- s^-1 |
| N-Benzoyl-L-valyl-L-alanyl-L-norleucine 2-furanoxy methyl ketone [Compound 12] | 1.9 × 10^5 M^- s^-1 |

Same assay, conditions: second order inactivation rate constant; 50 mM potassium phosphate pH 8.25, 1 mM EDTA, 1 mM DTT, 25° C.; purified Der p I; read-out: kobs /[I]

| Compound | kinact/KI |
| --- | --- |
| CC(C)C[C@@H](/C=C/S(=O)(=O)c1ccccc1)NC(=O)[C@H](C)NC(=O)[C@@H](NNC(=O)OC(C)(C)C)C(C)C [Compound 36, (S)-(E)-3-((tert-butoxycarbonylamino-L-valyl)-L-alanyl)amino-1-phenylsulfonyl-5-methyl-1-hexene] | 6400 M⁻¹ s⁻¹ |
| CC(C)C[C@@H](/C=C/S(C)(=O)=O)NC(=O)[C@H](C)NC(=O)[C@@H](NNC(=O)OC(C)(C)C)C(C)C [Compound 38, (S)-(E)-3-((tert-butoxycarbonylamino-L-valyl)-L-alanyl)amino-1-methylsulfonyl-5-methyl-1-hexene] | 1100 M⁻¹ s⁻¹ |
